Key:
[1] = biological target: T1, Rat M2 mAChR (Rattus norvegicus, UniProt P10980); experiment: calcium mobilization assay in CHO cells (Gqi5); type: cell-based; settings: rat M2, 100 μM AEME on ACh curve
T1 construct: host or cells: CHO (CHO-K1) cells
T1 sequence (P10980 1-466): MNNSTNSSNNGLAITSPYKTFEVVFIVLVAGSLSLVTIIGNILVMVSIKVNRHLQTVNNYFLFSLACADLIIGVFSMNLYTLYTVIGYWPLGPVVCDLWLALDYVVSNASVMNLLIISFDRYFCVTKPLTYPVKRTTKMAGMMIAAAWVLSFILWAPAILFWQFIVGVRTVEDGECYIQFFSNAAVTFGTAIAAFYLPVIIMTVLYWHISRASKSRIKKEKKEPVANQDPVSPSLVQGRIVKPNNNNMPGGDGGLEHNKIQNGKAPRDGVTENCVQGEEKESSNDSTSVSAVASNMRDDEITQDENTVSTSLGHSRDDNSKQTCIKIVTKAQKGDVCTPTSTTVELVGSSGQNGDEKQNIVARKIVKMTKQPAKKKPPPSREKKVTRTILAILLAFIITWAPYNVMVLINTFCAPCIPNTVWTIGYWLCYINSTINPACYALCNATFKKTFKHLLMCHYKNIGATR
Method: (§1) Chinese hamster ovary (CHO) cells individually and stably expressing individual rat mAChRs (rM1 to rM5 mAChRs) were purchased from the American Type Culture Collection (ATCC) and cultured according to ATCC recommendations. To generate stable rM2 and rM4 cell lines for use in calcium mobilization assays, rM2 and rM4-expressing cells were stably transfected with a chimeric G protein (Gqi5) using Lipofectamine 2000 (Invitrogen). rM2 and rM4 cells were grown in Ham’s F-12 medium containing 10% heat-inactivated fetal bovine serum (FBS), 2 mM GlutaMAX (Gibco®), 20 mM HEPES, 500 μg/mL G418 sulfate, 200 μg/mL hygromycin B and an antibiotic-antimycotic solution (Gibco®). rM1, rM3 and rM5 mAChR-CHO cells were grown in the same medium without hygromycin B[48]. CHO cells were cultured in a 150 mm-diameter cell culture-treated dishes (Corning®) at 37 °C and 5% CO2 until complete confluence.
(§2) CHO cells expressing rM1, rM3 and rM5 were plated at 4 × 10^4 cells per well, whereas rM2 and rM4 were plated at 6 × 10^4 cells per well, in standard growth media (as described previously under “cell culture”) in 96-well plates 24 hours before assay and were incubated overnight at 37 °C in 5% CO2. […] Cells were incubated for 45 minutes (37 °C, 5% CO2) for dye loading. […] AEME concentration-response curves were determined in single-add experiments. […]

[2] = biological target: T2, Rat M4 mAChR (Rattus norvegicus, UniProt P08485); experiment: calcium mobilization assay in CHO cells (Gqi5); type: cell-based; settings: rat M4, 100 μM AEME on ACh curve
T2 construct: host or cells: CHO (CHO-K1) cells
T2 sequence (P08485 1-478): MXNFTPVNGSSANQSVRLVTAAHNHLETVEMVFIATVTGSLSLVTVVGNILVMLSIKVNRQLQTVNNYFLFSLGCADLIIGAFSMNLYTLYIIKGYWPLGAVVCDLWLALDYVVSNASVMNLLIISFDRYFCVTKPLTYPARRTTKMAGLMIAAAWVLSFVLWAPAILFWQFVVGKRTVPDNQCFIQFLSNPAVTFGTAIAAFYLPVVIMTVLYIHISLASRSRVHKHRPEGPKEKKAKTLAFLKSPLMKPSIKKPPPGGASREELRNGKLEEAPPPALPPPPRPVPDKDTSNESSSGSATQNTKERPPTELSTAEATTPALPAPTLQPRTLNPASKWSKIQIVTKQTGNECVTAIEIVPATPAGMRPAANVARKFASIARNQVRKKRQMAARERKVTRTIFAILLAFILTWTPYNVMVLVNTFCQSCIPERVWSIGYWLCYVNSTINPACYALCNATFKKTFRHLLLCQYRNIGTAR
Method: as §1, §2

[3] = system: caspase-3; design: method as in PMID 22523227; settings: hippocampal neurons, 6 hours of exposure; cited from earlier work
[4] = system: rat primary hippocampal cell culture; experiment: DNA fragmentation (propidium iodide, flow cytometry); type: cell-based; settings: for cells with fragmented DNA: 24 hours, control 28.6%
Method: DNA fragmentation was assessed using propidium iodide following the method described by Lima et al.[47]. Hippocampal cells were incubated with 10^−4 or 10^−3 M AEME for 12 and 24 hours. Briefly, exposed cells were removed from the culture plate and centrifuged (500 g for 5 minutes) and lysed with a fragmentation buffer ([…] propidium iodide, 0.1% sodium citrate, and 0.1% Triton-X) for 2 hours at room temperature in the dark. DNA fragmentation was analyzed in a flow cytometry (FACSCalibur, Becton Dickinson, CA) using the FL2-A channel (λexcitation = 585 nm and λemission = 642 nm) and […] cells were evaluated per experiment.

[5] = system: rat primary hippocampal cell culture; experiment: intracellular calcium release in hippocampal cells (Fluo4-AM); type: cell-based; settings: 10^−5, 10^−4 and 10^−3 M AEME
Method: Hippocampal cells were removed from the plates and previously incubated with Fluo4-AM dye (Invitrogen) dissolved in Neurobasal medium (Gibco®) for one hour[46]. The cells were centrifuged (300 g for 5 minutes at 20 °C), washed with phosphate buffer solution (PBS) without calcium, and plated in microscopy confocal (Zeiss LSM 510, Meta) microplates pretreated with poli-L-lysine. The fluorescence was measured for 90 seconds in the absence and/or in the presence of 10^−5, 10^−4 and 10^−3 M AEME. After this period, 250 mM KCl was added in order to promote neuronal […] and, thus, verify its viability. All measurements were performed with a PBS free-calcium solution. Digitalized images were analyzed through the software Origin 5.

## COC(=O)C1=CC[C@@H]2CC[C@H]1N2C [AEME, anhydroecgonine methyl ester]
[1]
  mechanism of action: antagonized the effects of ACh
[2]
  mechanism of action: antagonized the effects of ACh
[3]
  caspase-3 activity: increased
[4]; 10^−3 M
  cells with fragmented DNA: 44.1%
[4]; 10^−4 or 10^−3 M, 12 hours
  DNA fragmentation: same pattern of DNA fragmentation as the control group
[4]; lower AEME concentration (10^−4 M)
  cells with fragmented DNA: 32.1%
[5]
  intracellular calcium release: concentration-dependent increase
